Laboratory results from patent EP1832586A1, “Thiazole-piperidine derivatives in treatment of diseases of liver and the pancreas” (Oridis Biomed Forschungs- und Entwicklungs GmbH, priority 2006, dated 2007).
Blank lines part the entries; values can stand above or below the compound they belong to.

What was measured:
Assay type in all cases: cell-based
[1] = test system: HuH7; test: CellTiter-Glo luminescent cell viability (proliferation) assay, HuH7; settings: inhibition of HuH7 (human hepatoma) proliferation, 48 hours incubation, 10% FCS
Experimental: (§1) To practically assess the impact of the thiazole-piperidine derivatives, e.g. derivatives of piperidinyl-thiazole carboxylic acid and/or piperidinyl thiazole carboxamide, in the treatment and/or prevention of diseases according to the invention, the inhibition of cell proliferation is determined by using a luminescent cell viability assay (CellTiter-Glo®; Promega, Madison, USA). The assay is based on the relation that the ATP content is directly proportional to the number of cells present in the culture. The CellTiter-Glo® assay is performed to measure the proliferation rate of human hepatoma (HuH7, PLC/PRF/5, Hep3B, SK-Hep1), human hepatoblastoma (HepG2), human colon carcinoma (CX-2), human breast cancer (SK-Br-3), human ovarian carcinoma (HeLa) and human pancreatic carcinoma (DAN-G) cell lines. […] In particular, the compound according to formula (1) wherein R^1 is 4-isopropoxycarbonylphenyl, R^2 is 3-indolylmethyl, R^3 is hydrogen, R^4 is hydrogen, n is zero, A is a single bond, B is carbonyl, and wherein the residue R^1NR^3CO is connected to the carbon atom bound to nitrogen of the thiazole ring (compound no. XI in Table 1) inhibits proliferation of the human cell lines HepG2 and Hep3B with 10.8 and 3.5 µM, respectively.
(§2) To determine the inhibition of cell proliferation a luminescent cell viability assay (CellTiter-Glo®; Promega, Madison, USA) is implemented. The assay is based on the relation that the ATP content is directly proportional to the number of cells present in the culture (Technical Bulletin No. 228 "CellTiter-Glo® Luminescent Cell viability Assay", Revised 2/04. Promeg, Madison, USA). The CellTiter-Glo® assay is performed to measure the proliferation rate of human hepatoma (HuH7, PLC/PRF/5, Hep3B, SK-Hep1), human hepatoblastoma (HepG2), human colon carcinoma (CX-2), human breast cancer (SK-Br-3), human ovarian carcinoma (HeLa) and human pancreatic carcinoma (DAN-G) cell lines. 3000 viable cells (viability ≥ 90%) are seeded in opaque-walled 96-well plates and incubated for 24 hours in DMEM, supplemented with 2 mM glutamin. Cell proliferation is stimulated by addition of FCS to a final concentration of 10% (v/v). Simultaneously the compounds (see Table 1 and 2) are added in a concentration range of 0 to 20 µM. Triplicates are measured for each concentration. Cells and compounds (see Table 1 and 2) are incubated for a period of 48 hours in a volume of 140 µl cell culture medium (10% (v/v) FCS, 2 mM Glutamin, DMEM). The compounds according to the invention are dissolved in 60% to 100% (v/v) DMSO at a concentration of 2 mM. The final DMSO concentration under assay conditions never exceeds 1% (v/v). Throughout the assay cells are kept in a humidified incubator (95% rH) at 37°C and 5% CO2.
(§3) The final cell number is determined after 48 hour of incubation. Therefore 140 µl CellTiter-Glo®Reagent is added in each well. The contents are mixed on an orbital shaker for 2 minutes at room temperature. After subsequent incubation for additional 10 minutes at room temperature the luminescence signal is recorded within 30 min. EC50 values are calculated using the four-parametric Hill equation (Sigma Plot). Control values are: • 1) 10% (v/v) FCS, 2 mM glutamin, DMEM -> maximum cell number • 2) 2 mM glutamin, DMEM -> initial cell number

[2] = test system: DAN-G; test: CellTiter-Glo luminescent cell viability (proliferation) assay, DAN-G; settings: DAN-G (human pancreatic carcinoma) proliferation, 48 hours incubation, 10% FCS
Experimental: as §1, §2, §3

[3] = test system: CX-2; test: CellTiter-Glo luminescent cell viability (proliferation) assay, CX-2; settings: CX-2 (human colon carcinoma) proliferation, 48 hours incubation, 10% FCS
Experimental: as §1, §2, §3

[4] = test system: HeLa; test: CellTiter-Glo luminescent cell viability (proliferation) assay, HeLa; settings: Hela (human ovarian carcinoma [sic]) proliferation, 48 hours incubation, 10% FCS
Experimental: as §1, §2, §3

[5] = test system: SK-Br-3; test: CellTiter-Glo luminescent cell viability (proliferation) assay, SK-Br-3; settings: Sk-Br-3 (human breast cancer) proliferation, 48 hours incubation, 10% FCS
Experimental: as §1, §2, §3

EC50 ([1]; Homo sapiens, Huh-7, 48 h): 3.03 µM
SMILES: Cn1nc(-c2ccccc2)cc1NC(=O)c1csc(C2CCN(C(=O)c3c(F)cccc3Cl)CC2)n1 [XLIX]

EC50 ([1]; Homo sapiens, Huh-7, 48 h): 4 µM
SMILES: Cc1ccc(NC(=O)c2csc(C3CCN(C(=O)CC4C=Nc5ccccc54)CC3)n2)c(F)c1 (centres unmarked) [XLVI]

EC50 ([1]; Huh-7): 2.98 µM | EC50 [4]: 22.9 µM | EC50 [5]: 23.8 µM
SMILES: O=C(NCc1ccccc1[N+](=O)[O-])c1csc(C2CCN(C(=O)Cc3c[nH]c4ccccc34)CC2)n1 [XL]
EC50 [2]: 9.01 µM | EC50 [3]: 14.9 µM

EC50 [4]: 23.5 µM | EC50 [5]: 18.9 µM
SMILES: Cc1nc(NC(=O)c2csc(C3CCN(C(=O)Cc4c[nH]c5ccccc45)CC3)n2)sc1C [XVII]
EC50 [2]: 5.59 µM | EC50 [3]: > 20 µM

EC50 ([1]; Homo sapiens, Huh-7, 48 h): 16.7 µM
SMILES: COc1ccccc1C(=O)NNC(=O)c1csc(C2CCN(C(=O)CC3C=Nc4ccccc43)CC2)n1 (centres unmarked) [XXIII]

EC50 ([1]; Huh-7): 2.27 µM
SMILES: C#CCOC(=O)N1CCC(c2nc(C(=O)Nc3cc(-c4ccccc4)n[nH]3)cs2)CC1 [XXVIII]

EC50 ([1]; Homo sapiens, Huh-7, 48 h): 3.08 µM
SMILES: CC(=O)c1cc2cc(NC(=O)c3csc(C4CCN(C(=O)CC5C=Nc6ccccc65)CC4)n3)ccc2o1 (centres unmarked) [XXXII]

EC50 ([1]; Homo sapiens, Huh-7, 48 h): 4.24 µM
SMILES: COc1ccc(C(N)=O)cc1NC(=O)c1csc(C2CCN(C(=O)Cc3ccccc3Cl)CC2)n1 [XXXIV]

EC50 ([1]; Homo sapiens, Huh-7, 48 h): 20.6 µM
SMILES: COc1cccc(CCNC(=O)c2csc(C3CCN(C(=O)CC4C=Nc5ccccc54)CC3)n2)c1 (centres unmarked) [XXXVIII]

EC50 ([1]; Homo sapiens, Huh-7, 48 h): 3.95 µM
SMILES: Cc1cc(Cl)ccc1CNC(=O)c1csc(C2CCN(C(=O)CC3C=Nc4ccccc43)CC2)n1 (centres unmarked) [XXXVI]

Continued, compound first:

SMILES: O=C(Nc1cc(-c2ccccc2)n[nH]1)c1csc(C2CCN(C(=O)c3cc4ccccc4o3)CC2)n1 [XLIV]
EC50 ([1]; Homo sapiens, Huh-7, 48 h): 2.53 µM

SMILES: COc1ccc(CNC(=O)c2csc(C3CCN(C(=O)CC4C=Nc5ccccc54)CC3)n2)cc1 (centres unmarked) [XLI]
EC50 ([1]; Homo sapiens, Huh-7, 48 h): 5.9 µM

SMILES: Cc1nc(C)c(C(=O)N2CCC(c3nc(C(=O)Nc4cc(-c5ccco5)n[nH]4)cs3)CC2)s1 [XLVIII]
EC50 ([1]; Homo sapiens, Huh-7, 48 h): 13.9 µM

SMILES: O=C(NC1CCc2ccccc21)c1csc(C2CCN(C(=O)CC3C=Nc4ccccc43)CC2)n1 (centres unmarked) [XLVII]
EC50 ([1]; Homo sapiens, Huh-7, 48 h): 9.15 µM | EC50 [2]: 9.7 µM | EC50 [3]: 19.9 µM | EC50 [4]: 13.6 µM | EC50 [5]: 11.2 µM

SMILES: CN(NC(=O)c1csc(C2CCN(C(=O)CC3C=Nc4ccccc43)CC2)n1)c1cnc2ccccc2n1 (centres unmarked) [XLV]
EC50 ([1]; Homo sapiens, Huh-7, 48 h): 7.56 µM

SMILES: Cn1nc(-c2cccs2)cc1NC(=O)c1csc(C2CCN(C(=O)c3ccccc3C(F)(F)F)CC2)n1 [XVIII]
EC50 ([1]; Huh-7): 13.4 µM

SMILES: Cc1nc(C)c(C(=O)N2CCC(c3nc(C(=O)NC4C=C(c5cccs5)N=N4)cs3)CC2)s1 (centres unmarked) [XVI]
EC50 [2]: 7.99 µM | EC50 [3]: > 20 µM | EC50 [4]: 10.5 µM | EC50 [5]: > 20 µM

SMILES: Cc1nc(C)c(C(=O)N2CCC(c3nc(C(=O)Nc4cc(-c5ccccc5)nn4C)cs3)CC2)s1 [XXII]
EC50 ([1]; Huh-7): 5.4 µM

SMILES: O=C(NC1CCN(Cc2ccccc2)C1)c1csc(C2CCN(C(=O)CC3C=Nc4ccccc43)CC2)n1 (centres unmarked) [XXIX]
EC50 ([1]; Homo sapiens, Huh-7, 48 h): 2.7 µM

SMILES: COc1ccc(CN2CCN(C(=O)c3csc(C4CCN(C(=O)CC5C=Nc6ccccc65)CC4)n3)CC2)cc1 (centres unmarked) [XXVII]
EC50 ([1]; Homo sapiens, Huh-7, 48 h): 35.6 µM

SMILES: Cc1ccc(OCC(=O)N2CCC(c3nc(C(=O)Nc4nccs4)cs3)CC2)cc1C [XXV]
EC50 ([1]; Homo sapiens, Huh-7, 48 h): 5.8 µM

SMILES: COc1ccc(C(=O)N2CCC(c3nc(C(=O)Nc4cc(-c5cccs5)n[nH]4)cs3)CC2)c(OC)c1OC [XXXIX]
EC50 ([1]; Huh-7): 2.19 µM

SMILES: Cc1nc(C)c(C(=O)N2CCC(c3nc(C(=O)Nc4cc(-c5cccs5)nn4C)cs3)CC2)s1 [XXXV]
EC50 ([1]; Homo sapiens, Huh-7, 48 h): 3.5 µM

SMILES: C=CCSc1ncccc1C(=O)N1CCC(c2nc(C(=O)Nc3cc(C(C)(C)C)n[nH]3)cs2)CC1 [XXX]
EC50 ([1]; Homo sapiens, Huh-7, 48 h): 4.2 µM
